Key:
corneal NV = assay: Treatment of suture-induced corneal NV, quantitative analysis of NV area and length; type: in vivo, Sprague Dawley rats; settings: single SC injection 30 μL, 5 mg sunb-malate/mL; POD 5, 7, 14
Description: Corneal NV was induced by intrastromal suturing. […] The distance between the stitch and the limbus was approximately 2 mm while there was a distance of 1 mm between the two stitches. […] Erythromycin antibiotic ointment was applied to prevent potential infection and corneal dry-up. The rats were followed for 2 weeks. The corneas of all rats were examined by slit-lamp biomicroscope (SL120; Carl Zeiss AG, Oberkochen, Germany) and corneal photographs were taken with a digital camera. The area and length of vascularized cornea were quantified with Photoshop CS3.0. The arc was drawn along the limbus, the vascularized area pixel measured and the corneal NV area was calculated using the following equation: The vascularized area was evenly divided into six sections. The distance between vessel tips and the limbus at the five intersection points of the arc was measured. The average of the five measured lengths was regarded as the corneal NV length.

[1] = Solubility of sunb-malate in PBS; type: physicochemical
[2] = Drug ocular retention in vivo after SC injection (autofluorescence imaging of eyeballs); set-up: species or system Sprague Dawley rats; settings: rat eye
Protocol: At post injection (PI) day 0, 1, 3, 7, 14 and 28, the whole eyeballs (n=4) were harvested after the animals were sacrificed. […] The fluorescent images were analyzed using the Living Image 3.0 software (Caliper Lifesciences, Inc.), and the retention of sunitinib was quantified by comparing to the fluorescence counts of the eye immediately undertaken SC injection. Rat eyes without SC injection were used as the baseline.

CCN(CC)CCNC(=O)c1c(C)[nH]c(/C=C2\C(=O)Nc3ccc(F)cc32)c1C.O=C(O)C[C@H](O)C(=O)O [Sunb-malate free drug, Sunitinib malate]
inhibition of corneal NV (length and area) (corneal NV): negligible effect
concentration dissolved in PBS [1]: at least 25 mg/mL
time to clearance after SC injection ([2]; 30 μL of 5 mg/mL): ≤ 1 days
time to almost no drug retention in the eye ([2]; SC injection): ≤ 24 h
